By Ki is commonly meant the equilibrium dissociation constant of an inhibitor or competing ligand from its target. A lower Ki goes with tighter binding.

This passage reports Ki results from BindingDB's records for PubMed 8496821 (Fujisawa Pharmaceutical, 1993).

Assay [1] concerns the target 5-hydroxytryptamine receptor 2A (Rattus norvegicus, UniProt P14842).
The target of the next assay is D(2) dopamine receptor (Rattus norvegicus, UniProt P61169).
Chain of D(2) dopamine receptor (P61169 whole entry): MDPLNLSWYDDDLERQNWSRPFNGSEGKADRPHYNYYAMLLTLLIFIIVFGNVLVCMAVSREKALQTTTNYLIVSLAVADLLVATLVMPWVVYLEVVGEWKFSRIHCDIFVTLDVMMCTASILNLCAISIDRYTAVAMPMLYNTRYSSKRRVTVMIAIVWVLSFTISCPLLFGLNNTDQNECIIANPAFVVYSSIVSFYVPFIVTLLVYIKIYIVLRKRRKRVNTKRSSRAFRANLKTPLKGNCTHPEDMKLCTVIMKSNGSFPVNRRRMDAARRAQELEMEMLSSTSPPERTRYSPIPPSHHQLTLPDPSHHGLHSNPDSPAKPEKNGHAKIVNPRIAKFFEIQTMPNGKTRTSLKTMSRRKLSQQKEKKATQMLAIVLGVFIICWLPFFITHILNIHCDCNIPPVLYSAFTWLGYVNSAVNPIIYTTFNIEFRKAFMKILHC

Chain of 5-hydroxytryptamine receptor 2A (P14842 whole entry): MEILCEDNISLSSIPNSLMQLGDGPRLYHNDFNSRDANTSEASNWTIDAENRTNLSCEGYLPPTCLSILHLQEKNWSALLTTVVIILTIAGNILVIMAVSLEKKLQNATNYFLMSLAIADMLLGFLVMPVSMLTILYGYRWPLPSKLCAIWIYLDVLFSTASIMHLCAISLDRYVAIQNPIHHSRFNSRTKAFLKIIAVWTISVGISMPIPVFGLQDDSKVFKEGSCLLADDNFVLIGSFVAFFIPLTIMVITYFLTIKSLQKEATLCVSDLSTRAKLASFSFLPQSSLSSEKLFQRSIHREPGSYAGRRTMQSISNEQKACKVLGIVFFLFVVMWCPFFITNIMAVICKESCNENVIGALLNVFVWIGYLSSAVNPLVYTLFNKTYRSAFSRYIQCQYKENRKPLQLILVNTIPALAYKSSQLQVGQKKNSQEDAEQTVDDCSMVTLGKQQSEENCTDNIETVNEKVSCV

As to `Cc1[nH]cnc1CC1CCc2c(C)c3ccccc3n2C1=O` (configuration not stated) [CAS_125368], the Ki (in assay [1]; on D(2) dopamine receptor) was 0.01 nM throughout.
